What was measured:
Assay in all cases: combination Emax (second highest fraction inhibited in the dose matrix, 72 h); higher = more inhibition; extreme values may be limits of the assay
[1] = test system: HT-1080 (Other Solid Carcinomas)
Procedure, shortened: (§1)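 After 24 hours at 37°C and 5% CO2 in 1536-well plates, cells in DMEM/F12 or RPMI plus 10% FBS received two-drug dose matrices for 72 hours. Viability came from CellTiter-Glo 2.0 luminescence and was scaled as inhibition, anchored at 0 by vehicle wells and at 1 by blank wells. Combination Emax is taken as the second-highest inhibition in the matrix, and Bliss excess as the observed combination effect less EA + EB − EA·EB, with EA and EB the single-agent effects.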

[2] = test system: SKG-IIIa (Cervical Carcinoma)
Procedure, shortened: as §1

IST-MEL1 (Melanoma) = test system: IST-MEL1 (Melanoma)
Procedure, shortened: as §1

[3] = test system: NCI-H1876 (Small Cell Lung Carcinoma)
Procedure, shortened: as §1

UACC-257 (Melanoma) = test system: UACC-257 (Melanoma)
Procedure, shortened: as §1

[4] = test system: SNU-C2B (Colorectal Carcinoma)
Procedure, shortened: as §1

[5] = test system: NCI-H596 (Other Solid Carcinomas)
Procedure, shortened: as §1

T47D (Breast Carcinoma) = test system: T47D (Breast Carcinoma)
Procedure, shortened: as §1

[6] = test system: CL-11 (Colorectal Carcinoma)
Procedure, shortened: as §1

[7] = test system: LS-1034 (Colorectal Carcinoma)
Procedure, shortened: as §1

[8] = test system: MDA-MB-415 (Breast Carcinoma)
Procedure, shortened: as §1

KALS-1 (Glioblastoma) = test system: KALS-1 (Glioblastoma)
Procedure, shortened: as §1

[9] = test system: SNU-407 (Colorectal Carcinoma)
Procedure, shortened: as §1

AM-38 (Glioblastoma) = test system: AM-38 (Glioblastoma)
Procedure, shortened: as §1

[10] = test system: MOLP-8 (Plasma Cell Myeloma)
Procedure, shortened: as §1

[11] = test system: NCI-H1341 (Small Cell Lung Carcinoma)
Procedure, shortened: as §1

[12] = test system: NCI-H3118 (Head and Neck Carcinoma)
Procedure, shortened: as §1

[13] = test system: MM1S (Plasma Cell Myeloma)
Procedure, shortened: as §1

[14] = test system: RCC-JW (Kidney Carcinoma)
Procedure, shortened: as §1

[15] = test system: MOLT-13 (T-Lymphoblastic Leukemia)
Procedure, shortened: as §1

Structure (SMILES)	combination Emax [1]	combination Emax [2]	combination Emax (IST-MEL1 (Melanoma))	combination Emax [3]	combination Emax (UACC-257 (Melanoma))	combination Emax [4]	combination Emax [5]	combination Emax (T47D (Breast Carcinoma))	combination Emax [6]	combination Emax [7]	combination Emax [8]	combination Emax (KALS-1 (Glioblastoma))	combination Emax [9]	combination Emax (AM-38 (Glioblastoma))	combination Emax [10]	combination Emax [11]	combination Emax [12]	combination Emax [13]	combination Emax [14]	combination Emax [15]
CC(=O)c1c(C)c2cnc(Nc3ccc(N4CCNCC4)cn3)nc2n(C2CCCC2)c1=O [Palbociclib] + Cn1cnc2c(F)c(Nc3ccc(Br)cc3Cl)c(C(=O)NOCCO)cc21 [Selumetinib] (first compound max 10 µM, 7x7, partner max 10 µM)	0.361	0.188	0.401	0.312	0.647	0.303	0.306	0.265	0.864	0.817	0.254	0.432	0.654	0.568	0.553	0.254	0.603	0.253	0.239	0.721
COc1cccc(OCCCN)c1-c1cc(Nc2cnc(C#N)cn2)n[nH]1 [Prexasertib] + C=CCn1c(=O)c2cnc(Nc3ccc(N4CCN(C)CC4)cc3)nc2n1-c1cccc(C(C)(C)O)n1 [AZD1775] (first compound max 1 µM, partner max 1 µM)	0.576	0.527	0.812	1	0.48	0.676	0.65	0.704	0.834	0.835	0.584	0.901	0.784	0.857	0.909	0.982	0.906	0.963	0.703	1
COc1cccc(OCCCN)c1-c1cc(Nc2cnc(C#N)cn2)n[nH]1 [Prexasertib] + CCc1c2c(nc3ccc(O)cc13)-c1cc3c(c(=O)n1C2)COC(=O)[C@]3(O)CC [SN-38] (first compound max 1 µM, 7x7, partner max 0.3 µM)	0.651	0.595	0.889	1	0.295	0.658	0.735	0.784	0.849	0.897	0.538	0.951	0.639	0.891	0.847	0.987	0.872	1	0.637	1
COc1cccc(OCCCN)c1-c1cc(Nc2cnc(C#N)cn2)n[nH]1 [Prexasertib] + CN(C)CCCOc1ccc(-c2ccc3ncc4c(c3c2)n(C2CCOCC2)c(=O)n4C)cn1 [AZD0156] (first compound max 1 µM, 7x7, partner max 1 µM)	0.563	0.389	0.75	0.968	0.364	0.622	0.414	0.426	0.734	0.724	0.321	0.839	0.653	0.837	0.894	0.869	0.858	0.847	0.366	1
COc1cccc(OCCCN)c1-c1cc(Nc2cnc(C#N)cn2)n[nH]1 [Prexasertib] + C[C@@H]1COCCN1C2=NC(=NC(=C2)C3(CC3)[S@](=N)(=O)C)C4=C5C=CNC5=NC=C4 [AZD6738] (first compound max 1 µM, 7x7, partner max 10 µM)	0.534	0.453	0.817	0.981	0.33	0.649	0.487	0.374	0.764	0.71	0.45	0.899	0.757	0.847	0.891	0.912	0.816	0.877	0.589	1
COc1cccc(OCCCN)c1-c1cc(Nc2cnc(C#N)cn2)n[nH]1 [Prexasertib] + Cc1cc2ncnn2cc1Nc1ncc2c(n1)n(C1CCOCC1)c(=O)n2C [AZD7648] (first compound max 1 µM, 7x7, partner max 10 µM)	0.557	0.389	0.772	0.988	0.321	0.706	0.438	0.512	0.788	0.685	0.413	0.866	0.597	0.845	0.897	0.919	0.819	0.858	0.501	1
COc1cccc(OCCCN)c1-c1cc(Nc2cnc(C#N)cn2)n[nH]1 [Prexasertib] + O=C(c1cc(Cc2n[nH]c(=O)c3ccccc23)ccc1F)N1CCN(C(=O)C2CC2)CC1 [Olaparib] (first compound max 1 µM, 7x7, partner max 10 µM)	0.542	0.373	0.706	0.981	0.312	0.66	0.642	0.479	0.77	0.685	0.397	0.785	0.583	0.847	0.882	0.884	0.837	0.931	0.319	1
